Test results published in ChEMBL document CHEMBL4507268 (2021).

What was measured:
Conditions in all cases: Compound concentration 1000.0 nM
[1] = target: T1, Serine/threonine-protein kinase PLK4 (Homo sapiens) (UniProt O00444)
T1 sequence (whole entry): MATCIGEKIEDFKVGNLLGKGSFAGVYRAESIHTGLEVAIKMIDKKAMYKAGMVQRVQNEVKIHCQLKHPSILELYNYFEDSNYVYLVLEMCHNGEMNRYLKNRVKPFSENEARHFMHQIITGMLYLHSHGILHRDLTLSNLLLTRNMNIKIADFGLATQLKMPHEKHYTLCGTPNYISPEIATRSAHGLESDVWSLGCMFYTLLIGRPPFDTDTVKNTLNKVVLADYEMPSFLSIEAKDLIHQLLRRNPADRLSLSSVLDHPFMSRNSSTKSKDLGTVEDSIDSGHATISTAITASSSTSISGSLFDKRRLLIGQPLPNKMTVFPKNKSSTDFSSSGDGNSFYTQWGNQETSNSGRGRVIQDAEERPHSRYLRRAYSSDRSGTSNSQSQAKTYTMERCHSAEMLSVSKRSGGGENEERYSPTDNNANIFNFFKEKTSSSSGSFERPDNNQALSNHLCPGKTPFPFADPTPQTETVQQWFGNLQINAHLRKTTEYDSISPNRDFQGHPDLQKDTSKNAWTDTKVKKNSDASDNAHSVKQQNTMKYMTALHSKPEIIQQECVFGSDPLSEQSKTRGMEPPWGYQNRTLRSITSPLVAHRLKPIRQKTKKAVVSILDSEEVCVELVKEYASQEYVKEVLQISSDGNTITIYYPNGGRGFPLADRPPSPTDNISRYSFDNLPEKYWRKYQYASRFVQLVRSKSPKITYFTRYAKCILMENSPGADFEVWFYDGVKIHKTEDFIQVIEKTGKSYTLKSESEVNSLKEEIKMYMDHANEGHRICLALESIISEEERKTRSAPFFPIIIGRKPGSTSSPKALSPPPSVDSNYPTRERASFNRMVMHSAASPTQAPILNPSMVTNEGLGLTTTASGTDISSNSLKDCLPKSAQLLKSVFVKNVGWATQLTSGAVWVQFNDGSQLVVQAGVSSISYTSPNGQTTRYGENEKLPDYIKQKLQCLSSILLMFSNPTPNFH

[2] = target: T2, Tyrosine-protein kinase JAK3 (Homo sapiens) (UniProt P52333)
T2 sequence (whole entry): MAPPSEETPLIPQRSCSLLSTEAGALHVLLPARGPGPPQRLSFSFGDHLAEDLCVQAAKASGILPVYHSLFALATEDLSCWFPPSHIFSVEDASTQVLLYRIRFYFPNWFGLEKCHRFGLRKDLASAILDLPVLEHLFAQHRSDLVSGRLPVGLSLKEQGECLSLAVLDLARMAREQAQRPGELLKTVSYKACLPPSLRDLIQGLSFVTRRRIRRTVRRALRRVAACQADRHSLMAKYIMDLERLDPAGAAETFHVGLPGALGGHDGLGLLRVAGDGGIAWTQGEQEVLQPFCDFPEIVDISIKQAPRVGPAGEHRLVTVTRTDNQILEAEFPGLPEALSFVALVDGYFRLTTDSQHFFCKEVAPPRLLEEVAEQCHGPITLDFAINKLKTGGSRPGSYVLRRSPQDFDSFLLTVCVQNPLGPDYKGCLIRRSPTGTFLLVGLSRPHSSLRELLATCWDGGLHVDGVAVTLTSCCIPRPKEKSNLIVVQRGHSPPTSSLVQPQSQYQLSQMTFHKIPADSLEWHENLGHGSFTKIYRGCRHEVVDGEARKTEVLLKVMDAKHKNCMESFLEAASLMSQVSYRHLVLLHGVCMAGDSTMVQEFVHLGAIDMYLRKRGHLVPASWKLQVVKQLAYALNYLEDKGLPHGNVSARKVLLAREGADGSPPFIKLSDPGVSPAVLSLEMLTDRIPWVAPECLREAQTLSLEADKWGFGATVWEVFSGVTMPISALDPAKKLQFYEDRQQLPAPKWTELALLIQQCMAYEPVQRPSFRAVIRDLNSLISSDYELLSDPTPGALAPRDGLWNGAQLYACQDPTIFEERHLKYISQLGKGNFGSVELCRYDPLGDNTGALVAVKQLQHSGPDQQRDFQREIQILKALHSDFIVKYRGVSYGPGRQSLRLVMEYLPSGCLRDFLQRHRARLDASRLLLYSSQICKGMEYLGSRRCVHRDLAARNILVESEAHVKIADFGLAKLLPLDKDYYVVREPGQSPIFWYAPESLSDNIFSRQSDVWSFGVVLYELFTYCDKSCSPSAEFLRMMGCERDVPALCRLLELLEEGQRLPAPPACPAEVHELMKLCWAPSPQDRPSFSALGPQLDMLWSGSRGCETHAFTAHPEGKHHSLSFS

[3] = target: T3, Serine/threonine-protein kinase NLK (Homo sapiens) (UniProt Q9UBE8)
T3 sequence (whole entry): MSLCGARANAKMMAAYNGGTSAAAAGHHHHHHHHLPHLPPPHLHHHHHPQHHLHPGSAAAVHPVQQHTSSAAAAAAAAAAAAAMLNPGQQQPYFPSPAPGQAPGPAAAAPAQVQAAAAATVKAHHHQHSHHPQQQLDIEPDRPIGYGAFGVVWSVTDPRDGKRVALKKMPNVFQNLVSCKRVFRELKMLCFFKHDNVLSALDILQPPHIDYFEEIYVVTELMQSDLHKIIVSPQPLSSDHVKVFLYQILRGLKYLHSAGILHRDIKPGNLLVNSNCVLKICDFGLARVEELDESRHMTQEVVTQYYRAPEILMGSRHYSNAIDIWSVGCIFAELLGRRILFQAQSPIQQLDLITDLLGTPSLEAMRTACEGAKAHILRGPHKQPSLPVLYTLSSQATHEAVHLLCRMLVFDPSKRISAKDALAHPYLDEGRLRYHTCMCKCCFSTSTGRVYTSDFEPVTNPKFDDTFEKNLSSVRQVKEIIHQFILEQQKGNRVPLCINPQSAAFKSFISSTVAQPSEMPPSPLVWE

[4] = target: SRSF protein kinase 2 (Homo sapiens) (UniProt P78362)
[5] = target: Macrophage colony-stimulating factor 1 receptor (Homo sapiens) (UniProt P07333)

Measured: residual activity

Sequence of Macrophage colony-stimulating factor 1 receptor (Homo sapiens) (P07333 whole entry): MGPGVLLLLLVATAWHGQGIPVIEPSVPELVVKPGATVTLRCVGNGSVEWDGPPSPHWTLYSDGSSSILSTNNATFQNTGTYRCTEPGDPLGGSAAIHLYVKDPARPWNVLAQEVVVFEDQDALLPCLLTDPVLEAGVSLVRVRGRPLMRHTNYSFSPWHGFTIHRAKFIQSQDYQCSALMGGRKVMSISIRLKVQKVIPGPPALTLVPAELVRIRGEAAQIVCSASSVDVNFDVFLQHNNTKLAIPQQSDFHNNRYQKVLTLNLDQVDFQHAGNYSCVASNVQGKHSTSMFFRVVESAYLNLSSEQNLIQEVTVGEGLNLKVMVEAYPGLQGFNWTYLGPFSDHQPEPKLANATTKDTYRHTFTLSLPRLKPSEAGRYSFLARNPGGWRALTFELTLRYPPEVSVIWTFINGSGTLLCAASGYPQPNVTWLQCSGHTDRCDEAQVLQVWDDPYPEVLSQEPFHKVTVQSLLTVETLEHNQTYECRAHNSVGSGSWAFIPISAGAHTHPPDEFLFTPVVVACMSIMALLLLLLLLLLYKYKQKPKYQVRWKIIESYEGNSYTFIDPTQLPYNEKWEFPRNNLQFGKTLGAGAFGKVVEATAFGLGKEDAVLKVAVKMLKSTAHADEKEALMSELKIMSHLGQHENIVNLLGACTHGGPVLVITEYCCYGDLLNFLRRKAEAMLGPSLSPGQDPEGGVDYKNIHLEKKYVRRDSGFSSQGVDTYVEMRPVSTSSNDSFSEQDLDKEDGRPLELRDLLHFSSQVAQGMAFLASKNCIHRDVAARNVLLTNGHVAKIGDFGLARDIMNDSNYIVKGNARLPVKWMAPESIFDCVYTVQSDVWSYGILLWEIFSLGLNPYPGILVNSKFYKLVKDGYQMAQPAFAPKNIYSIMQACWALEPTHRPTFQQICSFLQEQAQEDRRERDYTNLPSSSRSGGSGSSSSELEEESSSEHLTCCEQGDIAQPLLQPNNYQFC
Sequence of SRSF protein kinase 2 (Homo sapiens) (P78362 whole entry, looked up): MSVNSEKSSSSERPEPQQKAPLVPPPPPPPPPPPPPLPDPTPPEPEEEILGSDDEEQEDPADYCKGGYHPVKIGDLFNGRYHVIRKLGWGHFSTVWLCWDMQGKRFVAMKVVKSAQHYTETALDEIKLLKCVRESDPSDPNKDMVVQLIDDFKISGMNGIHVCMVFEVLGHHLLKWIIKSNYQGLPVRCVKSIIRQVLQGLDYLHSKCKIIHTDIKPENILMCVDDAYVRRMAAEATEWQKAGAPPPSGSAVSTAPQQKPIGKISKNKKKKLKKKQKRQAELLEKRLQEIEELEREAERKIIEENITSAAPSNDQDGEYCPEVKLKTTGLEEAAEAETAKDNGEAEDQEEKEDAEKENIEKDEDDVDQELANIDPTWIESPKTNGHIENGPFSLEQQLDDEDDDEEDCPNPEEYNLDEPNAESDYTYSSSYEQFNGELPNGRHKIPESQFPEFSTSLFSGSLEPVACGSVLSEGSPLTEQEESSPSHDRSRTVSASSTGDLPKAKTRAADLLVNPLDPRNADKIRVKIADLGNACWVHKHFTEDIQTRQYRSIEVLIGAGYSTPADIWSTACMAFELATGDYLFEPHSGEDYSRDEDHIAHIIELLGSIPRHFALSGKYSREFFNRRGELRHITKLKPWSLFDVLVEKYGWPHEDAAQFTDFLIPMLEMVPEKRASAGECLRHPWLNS

CN1CCN(c2cnc3c(C4CCN(C(=O)c5ccc(OC(F)(F)F)cc5N)CC4)ncnc3c2)CC1 [BAY-885]
inactive: [1] 83% | [2] 100% | [3] 100% | [4] 78% | [5] 92%

Cc1nc(C2CCN(C(=O)c3ccc(OC(F)(F)F)cc3N)CC2)c2ncc(N3CCN(C)CC3)cc2n1 [BAY-693]
inactive: [1] 77% | [2] 100% | [3] 100% | [4] 74% | [5] 94%
